The values below come from patent US8648086B2, “5,6-bicyclic heteroaryl-containing urea compounds as kinase inhibitors” (Ascepion Pharmaceuticals, Inc., priority 2009, dated 2014).

Where a name gives a salt, the structure may show the parent alone.

For one test, the target named is T1, PDGFRβ (Homo sapiens, UniProt P09619).
T1 construct: expressed in transfected cells; host or cells: CHO cells, pcDNA3.1 plasmid
The test is described as follows: PDGFRβ cell-based assay (phospho-PDGFRβ ELISA, transfected CHO cells). Particulars: compound at 100 nM, read-out: % PDGFRβ kinase activity remains. Here is the method: A standard cell-based assay for PDGFRβ kinase activity can be used to test a compound of this invention and to identify PDGFRβ antagonists.
Specifically, a compound to be tested was first dissolved in DMSO to a concentration of 10 mM and stored at −20° C. The activity of PDGFRβ in cells depends on the phosphorylation level of its intracellular domain induced by the ligand. In order to express PDGFRβ in the cell, full length PDGFRβ sequence was cloned into PC-DNA3.1 vector. The plasmid was then transfected into CHO cells. After 48 hours following the transfection, the expression of PDGFRβ in transfected CHO cells was confirmed by regular western blotting.
To screen the compound of this invention, the ELISA kit (R&D Systems, Minneapolis, Minn., USA) was used. One day before the screening, CHO cells transfected with full length PDGFRβ plasmid were grown in DMEM medium without the presence of serum. On the day of screening, various concentrations of compounds (from 0.5 nM to 500 nM) were added into DMEM medium. Two hours later, 20% of FBS (Fetal Bovine Serum) was added into the medium to stimulate the expression of phosphor-PDGFRβ. Cell lysate from approximately 5×10^5 transfected CHO cells were reacted with anti-phosphor-PDGFRβ or anti-total PDGFRβ antibody in 96 well plates, in the presence of detection antibody, the phosphor-PDGFRβ or total PDGFRβ were detected with Streptavidin-HRP (R&D Systems), followed by chemiluminescent detection.
(In general: In an ELISA, binding on a coated surface is turned into a signal by an enzyme label.)

A further test concerns the target T2, VEGFR2 (Homo sapiens, UniProt P35968).
T2 construct: expressed in transfected cells; host or cells: CHO cells, pcDNA3.1 plasmid
The experiment in a line: VEGFR2 cell-based assay (phospho-VEGFR2 ELISA, transfected CHO cells). Particulars: compound at 100 nM, read-out: % VEGFR2 kinase activity remains. The procedure: A standard cell-based assay for VEGFR2 kinase activity can be used to test compounds of this invention and to identify VEGFR2 antagonists.
Specifically, a compound to be tested was first dissolved in DMSO to a concentration of 10 mM and stored at −20° C. The activity of VEGFR2 in cells depends on the phosphorylation level at its intracellular domain induced by the ligand. In order to express VEGFR2 in the cells, full length VEGFR2 sequence was cloned into PC-DNA3.1 vector, the plasmid was then transfected into CHO cells. After 48 hours, the expression of VEGFR2 in transfected CHO cells was confirmed by regular western blotting.
To screen the compounds of this invention, the ELISA kit (R&D Systems) was used. One day before the screening, CHO cells transfected with full length VEGFR2 plasmid were grown in DMEM medium without the presence of serum. On the day of screening, various concentrations of compounds (From 0.5 nM to 500 nM) were added into DMEM medium. Two hours later, 20% of FBS (Fetal Bovine Serum) was added into the medium to stimulate the production of phosphor-VEGFR2. Cell lysate from approximately 5×10^5 transfected CHO cells were reacted with anti-phosphor-VEGFR2 or anti-total VEGFR2 antibody in 96 well plates. In the presence of detection antibody, the phosphor-VEGFR2 or total VEGFR2 were detected with Streptavidin-HRP (R&D Systems) followed by chemiluminescence detection.

The target of another test is T3, c-Met (Homo sapiens, UniProt P08581).
T3 construct: endogenous in cells; host or cells: A549 cells
T3 sequence (P08581 25-1390): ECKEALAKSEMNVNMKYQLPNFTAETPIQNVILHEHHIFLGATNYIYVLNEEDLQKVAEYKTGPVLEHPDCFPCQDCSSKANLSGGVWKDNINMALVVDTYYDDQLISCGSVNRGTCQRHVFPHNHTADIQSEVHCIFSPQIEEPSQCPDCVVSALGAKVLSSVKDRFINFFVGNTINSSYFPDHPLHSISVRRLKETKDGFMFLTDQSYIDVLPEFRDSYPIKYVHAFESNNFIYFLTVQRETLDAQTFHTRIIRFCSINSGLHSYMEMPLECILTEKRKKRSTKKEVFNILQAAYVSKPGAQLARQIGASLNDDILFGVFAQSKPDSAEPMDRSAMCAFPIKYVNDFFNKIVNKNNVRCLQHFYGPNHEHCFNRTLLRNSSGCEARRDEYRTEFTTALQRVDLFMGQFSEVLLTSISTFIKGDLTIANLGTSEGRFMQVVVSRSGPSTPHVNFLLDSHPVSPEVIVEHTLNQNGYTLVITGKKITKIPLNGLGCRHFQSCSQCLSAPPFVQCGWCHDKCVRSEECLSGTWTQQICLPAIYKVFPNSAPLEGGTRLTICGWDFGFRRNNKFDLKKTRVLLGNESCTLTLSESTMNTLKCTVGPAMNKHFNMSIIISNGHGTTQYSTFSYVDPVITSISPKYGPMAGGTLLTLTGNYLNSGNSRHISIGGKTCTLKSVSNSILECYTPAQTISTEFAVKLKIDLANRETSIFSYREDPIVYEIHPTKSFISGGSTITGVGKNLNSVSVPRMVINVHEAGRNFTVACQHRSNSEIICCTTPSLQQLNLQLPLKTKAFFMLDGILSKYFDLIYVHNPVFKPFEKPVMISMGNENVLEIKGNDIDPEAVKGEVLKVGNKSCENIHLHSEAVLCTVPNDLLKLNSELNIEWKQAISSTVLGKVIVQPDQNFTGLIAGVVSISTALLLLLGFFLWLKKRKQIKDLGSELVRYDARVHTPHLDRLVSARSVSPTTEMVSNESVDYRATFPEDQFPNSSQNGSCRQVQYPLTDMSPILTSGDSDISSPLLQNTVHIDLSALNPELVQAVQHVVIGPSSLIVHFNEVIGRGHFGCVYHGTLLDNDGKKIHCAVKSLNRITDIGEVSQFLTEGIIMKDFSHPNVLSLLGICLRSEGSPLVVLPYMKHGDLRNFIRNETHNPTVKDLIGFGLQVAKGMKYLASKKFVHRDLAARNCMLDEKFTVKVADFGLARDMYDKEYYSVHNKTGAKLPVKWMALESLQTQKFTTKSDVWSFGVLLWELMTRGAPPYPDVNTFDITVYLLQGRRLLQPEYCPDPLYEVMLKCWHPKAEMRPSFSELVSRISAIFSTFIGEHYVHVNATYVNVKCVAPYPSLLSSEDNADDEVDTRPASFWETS
The experiment in a line: c-Met cell-based assay (phospho-c-Met ELISA, A549 cells). The note with it: compound at 100 nM. Here is the method:
A procedure for standard cell-based assay for c-Met kinase activity can be used to test compounds of this invention for their inhibitory effect on this kinase and to identify c-Met antagonists.
Specifically, a compound to be tested was first dissolved in DMSO to a concentration of 10 mM and stored at −20° C. The activity of c-Met in cells depends on the phosphorylation level at its intracellular domain induced by its ligand, Hepatocyte growth factor (HGF). In order to induce the cells to produce phosphate c-Met, paracrine HGF-dependent NSCLC (None Small Cell Lung Cancer) A549 cells were grown in DMEM with 10% FBS.
To screen compounds of this invention for their inhibitory effect on c-Met kinase, the ELISA kit (R&D Systems) was used. One day before screening procedure, A549 cells were grown in DMEM without the presence of serum. On the day of screening procedure, various concentrations of compounds (from 0.5 nM to 500 nM) were added into the culture medium. Two hours later, 20% of FBS (Fetal Bovine Serum) was added into the medium to stimulate the expression of phosphor-c-Met. After 20 minutes, cell lysate from approximately 5×10^5 A549 cells were reacted with anti-phosphor-c-Met or anti total c-Met antibody in 96 well plates. In the presence of detection antibody, the phosphor-c-Met or total c-Met can be detected with Streptavidin-HRP (R&D Systems) followed by chemiluminescence detection.

T1 sequence (P09619 33-1106, species assumed): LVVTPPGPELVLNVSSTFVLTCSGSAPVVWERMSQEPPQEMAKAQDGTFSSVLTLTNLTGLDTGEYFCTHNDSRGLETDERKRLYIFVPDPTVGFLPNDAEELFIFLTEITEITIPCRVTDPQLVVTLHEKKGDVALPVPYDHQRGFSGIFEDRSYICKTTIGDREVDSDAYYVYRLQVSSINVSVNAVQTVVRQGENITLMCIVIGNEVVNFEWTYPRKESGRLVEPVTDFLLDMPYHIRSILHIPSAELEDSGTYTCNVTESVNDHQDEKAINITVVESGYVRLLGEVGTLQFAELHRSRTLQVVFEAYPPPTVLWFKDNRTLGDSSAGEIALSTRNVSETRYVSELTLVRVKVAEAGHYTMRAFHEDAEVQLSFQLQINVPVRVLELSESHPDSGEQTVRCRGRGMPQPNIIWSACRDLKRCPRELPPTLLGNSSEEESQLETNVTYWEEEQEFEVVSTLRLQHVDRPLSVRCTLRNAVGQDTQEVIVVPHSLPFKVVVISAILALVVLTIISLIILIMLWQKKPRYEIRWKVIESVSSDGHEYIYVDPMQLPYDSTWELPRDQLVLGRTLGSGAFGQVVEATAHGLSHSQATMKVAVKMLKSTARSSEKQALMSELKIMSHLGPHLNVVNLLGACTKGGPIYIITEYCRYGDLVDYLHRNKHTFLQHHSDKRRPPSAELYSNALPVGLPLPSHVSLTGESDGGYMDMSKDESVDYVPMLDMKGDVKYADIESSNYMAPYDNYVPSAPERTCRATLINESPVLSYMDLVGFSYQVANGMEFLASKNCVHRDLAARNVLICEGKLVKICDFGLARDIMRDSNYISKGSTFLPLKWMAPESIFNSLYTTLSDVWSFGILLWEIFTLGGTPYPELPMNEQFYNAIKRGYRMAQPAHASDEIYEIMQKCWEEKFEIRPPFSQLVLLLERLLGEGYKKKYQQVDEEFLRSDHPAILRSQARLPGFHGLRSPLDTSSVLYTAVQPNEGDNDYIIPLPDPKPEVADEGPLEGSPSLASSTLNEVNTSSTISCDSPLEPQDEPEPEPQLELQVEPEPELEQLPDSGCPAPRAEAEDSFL
T2 sequence (P35968 20-1356, species assumed): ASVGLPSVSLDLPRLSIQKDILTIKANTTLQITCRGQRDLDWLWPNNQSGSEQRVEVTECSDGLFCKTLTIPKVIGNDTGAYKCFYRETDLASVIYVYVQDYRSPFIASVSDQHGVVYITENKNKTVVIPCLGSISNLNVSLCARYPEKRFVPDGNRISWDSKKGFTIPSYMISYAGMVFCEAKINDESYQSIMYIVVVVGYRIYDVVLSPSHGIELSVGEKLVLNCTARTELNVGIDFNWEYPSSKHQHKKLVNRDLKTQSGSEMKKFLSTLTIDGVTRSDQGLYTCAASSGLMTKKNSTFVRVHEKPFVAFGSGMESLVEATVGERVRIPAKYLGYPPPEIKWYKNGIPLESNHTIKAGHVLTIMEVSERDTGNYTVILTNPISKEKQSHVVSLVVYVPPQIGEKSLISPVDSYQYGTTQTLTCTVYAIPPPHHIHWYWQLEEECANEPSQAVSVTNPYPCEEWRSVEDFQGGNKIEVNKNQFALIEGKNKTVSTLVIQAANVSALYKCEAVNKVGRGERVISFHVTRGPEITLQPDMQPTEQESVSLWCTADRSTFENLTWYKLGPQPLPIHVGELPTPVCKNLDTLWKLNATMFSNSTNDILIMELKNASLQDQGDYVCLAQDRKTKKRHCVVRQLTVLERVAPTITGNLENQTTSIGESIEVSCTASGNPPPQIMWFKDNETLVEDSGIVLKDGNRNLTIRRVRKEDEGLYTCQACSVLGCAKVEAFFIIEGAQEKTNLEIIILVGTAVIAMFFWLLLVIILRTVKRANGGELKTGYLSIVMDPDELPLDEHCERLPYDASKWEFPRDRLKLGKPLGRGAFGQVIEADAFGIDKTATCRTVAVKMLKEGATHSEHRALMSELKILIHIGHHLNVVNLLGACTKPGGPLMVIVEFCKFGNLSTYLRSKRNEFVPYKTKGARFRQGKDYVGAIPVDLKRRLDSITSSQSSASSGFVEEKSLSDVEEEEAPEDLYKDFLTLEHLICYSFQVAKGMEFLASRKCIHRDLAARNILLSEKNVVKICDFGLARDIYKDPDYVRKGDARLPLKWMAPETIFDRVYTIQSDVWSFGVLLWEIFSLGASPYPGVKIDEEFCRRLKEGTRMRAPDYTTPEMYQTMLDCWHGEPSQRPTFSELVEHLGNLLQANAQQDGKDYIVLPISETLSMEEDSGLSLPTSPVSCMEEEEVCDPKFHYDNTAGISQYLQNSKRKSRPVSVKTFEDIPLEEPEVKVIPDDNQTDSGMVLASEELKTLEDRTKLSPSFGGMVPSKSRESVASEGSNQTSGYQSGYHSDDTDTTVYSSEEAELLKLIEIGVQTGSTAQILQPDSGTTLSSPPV

Regarding `Cl.O=C(Nc1ccccc1)Nc1cccc2c1ccn2Cc1c[nH]c2ncccc12` [Example 4, 1-Phenyl-3-[1-(1H-pyrrolo[2,3-b]pyridin-3-ylmethyl)-1H-indol-4-yl]urea hydrochloride], the remaining activity at 0.1 µM on PDGFRβ and at VEGFR2 was at least 70% each time. At c-Met, the “% c-Met kinase activity remains” value is given as “B (the percentage is greater or equal to 70%)”.

Regarding `O=C(Nc1ccc(Cl)cc1)Nc1cccc2c1ccn2Cc1c[nH]c2ncccc12` [Example 10, 1-(4-Chlorophenyl)-3-[1-(1H-pyrrolo[2,3-b]pyridin-3-ylmethyl)-1H-indol-4-yl]urea hydrochloride], the remaining activity at 0.1 µM on PDGFRβ and on VEGFR2 was at least 70% each time. For the same compound, the “% c-Met kinase activity remains” value on c-Met is reported as “B (the percentage is greater or equal to 70%)”.

`Cl.O=C(Nc1cccc(Br)c1)Nc1cccc2c1ccn2Cc1c[nH]c2ncccc12` [Example 12, 1-(3-Bromophenyl)-3-[1-(1H-pyrrolo[2,3-b]pyridin-3-ylmethyl)-1H-indol-4-yl]urea hydrochloride]: the remaining activity at 0.1 µM on PDGFRβ is at least 70%; at VEGFR2, below 70%. Moreover, the “% c-Met kinase activity remains” value on c-Met is recorded as “A (the percentage of kinase activity remains is below 70%)”.

In the case of `Cl.O=C(Nc1ccc(Br)cc1)Nc1cccc2c1ccn2Cc1c[nH]c2ncccc12` [Example 13, 1-(4-Bromophenyl)-3-[1-(1H-pyrrolo[2,3-b]pyridin-3-ylmethyl)-1H-indol-4-yl]urea hydrochloride], the remaining activity at 0.1 µM at PDGFRβ and at VEGFR2 was at least 70% in each case. In addition, the “% c-Met kinase activity remains” value on c-Met is “A (the percentage of kinase activity remains is below 70%)”.

In the case of `COc1ccc(F)c(NC(=O)Nc2cccc3c2ccn3Cc2c[nH]c3ncccc23)c1` [Example 31, 1-(2-Fluoro-5-methoxyphenyl)-3-[1-(1H-pyrrolo[2,3-b]pyridin-3-ylmethyl)-1H-indol-4-yl]urea hydrochloride], the remaining activity at 0.1 µM on PDGFRβ is at least 70%.

As for `Cl.O=C(Nc1ccccc1F)Nc1cccc2c1ccn2Cc1ccnc2[nH]ccc12` [Example 34, 1-(2-Fluorophenyl)-3-[1-(1H-pyrrolo[2,3-b]pyridin-4-ylmethyl)-1H-indol-4-yl]urea hydrochloride], at VEGFR2, the remaining activity at 0.1 µM is below 70%. On c-Met, the “% c-Met kinase activity remains” value is given as “B (the percentage is greater or equal to 70%)”.

For the compound `O=C(Nc1ccccc1Cl)Nc1cccc2c1ccn2Cc1ccnc2[nH]ccc12` [Example 37, 1-(2-Chlorophenyl)-3-[1-(1H-pyrrolo[2,3-b]pyridin-4-ylmethyl)-1H-indol-4-yl]urea hydrochloride], on VEGFR2, the remaining activity at 0.1 µM was below 70%. The “% c-Met kinase activity remains” value on c-Met was “A (the percentage of kinase activity remains is below 70%)”.

With `O=C(Nc1ccc(Cl)cc1)Nc1cccc2c1ccn2Cc1ccnc2[nH]ccc12` [Example 39, 1-(4-Chlorophenyl)-3-[1-(1H-pyrrolo[2,3-b]pyridin-4-ylmethyl)-1H-indol-4-yl]urea hydrochloride], the remaining activity at 0.1 µM at VEGFR2 is below 70%. On c-Met, the “% c-Met kinase activity remains” value is “A (the percentage of kinase activity remains is below 70%)”.

In the case of `Cl.O=C(Nc1ccccc1Br)Nc1cccc2c1ccn2Cc1ccnc2[nH]ccc12` [Example 40, 1-(2-Bromophenyl)-3-[1-(1H-pyrrolo[2,3-b]pyridin-4-ylmethyl)-1H-indol-4-yl]urea hydrochloride], at VEGFR2, the remaining activity at 0.1 µM is below 70%. For the same compound, the “% c-Met kinase activity remains” value at c-Met is on record as “A (the percentage of kinase activity remains is below 70%)”.

For `Cl.O=C(Nc1cccc(Br)c1)Nc1cccc2c1ccn2Cc1ccnc2[nH]ccc12` [Example 41, 1-(3-Bromophenyl)-3-[1-(1H-pyrrolo[2,3-b]pyridin-4-ylmethyl)-1H-indol-4-yl]urea hydrochloride], the remaining activity at 0.1 µM at VEGFR2 was at least 70%. Moreover, on c-Met, the “% c-Met kinase activity remains” value is “B (the percentage is greater or equal to 70%)”.

For the compound `Cl.O=C(Nc1ccc(Br)cc1)Nc1cccc2c1ccn2Cc1ccnc2[nH]ccc12` [Example 42, 1-(4-Bromophenyl)-3-[1-(1H-pyrrolo[2,3-b]pyridin-4-ylmethyl)-1H-indol-4-yl]urea hydrochloride], the remaining activity at 0.1 µM at VEGFR2 is below 70%. Further, the “% c-Met kinase activity remains” value on c-Met was “B (the percentage is greater or equal to 70%)”.

Regarding `Cc1ccc(NC(=O)Nc2cccc3c2ccn3Cc2ccnc3[nH]ccc23)cc1.Cl` [Example 45, 1-(4-Methylphenyl)-3-[1-(1H-pyrrolo[2,3-b]pyridin-4-ylmethyl)-1H-indol-4-yl]urea hydrochloride], the remaining activity at 0.1 µM at VEGFR2 is below 70%. Moreover, the “% c-Met kinase activity remains” value on c-Met is reported as “A (the percentage of kinase activity remains is below 70%)”.

As to `COc1ccccc1NC(=O)Nc1cccc2c1ccn2Cc1ccnc2[nH]ccc12.Cl` [Example 46, 1-(2-Methoxyphenyl)-3-[1-(1H-pyrrolo[2,3-b]pyridin-4-ylmethyl)-1H-indol-4-yl]urea hydrochloride], at VEGFR2, the remaining activity at 0.1 µM is at least 70%. Moreover, the “% c-Met kinase activity remains” value at c-Met is given as “B (the percentage is greater or equal to 70%)”.

With `O=C(Nc1ccccc1C(F)(F)F)Nc1cccc2c1ccn2Cc1ccnc2[nH]ccc12` [Example 50, 1-(2-Trifluoromethylphenyl)-3-[1-(1H-pyrrolo[2,3-b]pyridin-4-ylmethyl)-1H-indol-4-yl]urea hydrochloride], the remaining activity at 0.1 µM on PDGFRβ is at least 70%.

As for `N#Cc1cccc(NC(=O)Nc2cccc3c2ccn3Cc2ccnc3[nH]ccc23)c1` [Example 53, 1-(3-Cyanophenyl)-3-[1-(1H-pyrrolo[2,3-b]pyridin-4-ylmethyl)-1H-indol-4-yl]urea hydrochloride], the remaining activity at 0.1 µM at PDGFRβ was at least 70%.

`Cl.O=C(Nc1cc(Br)ccc1F)Nc1cccc2c1ccn2Cc1ccnc2[nH]ccc12` [Example 57, 1-(2-Fluoro-5-bromophenyl)-3-[1-(1H-pyrrolo[2,3-b]pyridin-4-ylmethyl)-1H-indol-4-yl]urea hydrochloride]: the remaining activity at 0.1 µM at VEGFR2 is below 70%. Besides, the “% c-Met kinase activity remains” value on c-Met is on record as “A (the percentage of kinase activity remains is below 70%)”.

For `Cc1ccc(Br)c(NC(=O)Nc2cccc3c2ccn3Cc2ccnc3[nH]ccc23)c1.Cl` [Example 58, 1-(2-Bromo-5-methylphenyl)-3-[1-(1H-pyrrolo[2,3-b]pyridin-4-ylmethyl)-1H-indol-4-yl]urea hydrochloride], on VEGFR2, the remaining activity at 0.1 µM was below 70%. Besides, the “% c-Met kinase activity remains” value on c-Met is reported as “A (the percentage of kinase activity remains is below 70%)”.

With `Cc1c(F)cccc1NC(=O)Nc1cccc2c1ccn2Cc1ccnc2[nH]ccc12.Cl` [Example 59, 1-(2-Methyl-3-fluorophenyl)-3-[1-(1H-pyrrolo[2,3-b]pyridin-4-ylmethyl)-1H-indol-4-yl]urea hydrochloride], the remaining activity at 0.1 µM at VEGFR2 was below 70%. For the same compound, the “% c-Met kinase activity remains” value at c-Met is “A (the percentage of kinase activity remains is below 70%)”.
